Test results taken from publication PMC11887051, “Discovery of ONO-2920632 (VU6011887): A Highly Selective and CNS Penetrant TREK-2 (TWIK-Related K+ Channel 2) Preferring Activator In Vivo Tool Compound” (ACS Chemical Neuroscience, 2025).
pEC50: −log10 of the molar value. Like-named read-outs stand apart in the source and are kept apart here.

Key:
[1] = target: T1, TREK-1 (Homo sapiens, UniProt O95069); set-up: method as in PMID 32851651; settings: read-out: functional EC50 for activation of TREK-1; cited from earlier work
T1 sequence (O95069 1-426): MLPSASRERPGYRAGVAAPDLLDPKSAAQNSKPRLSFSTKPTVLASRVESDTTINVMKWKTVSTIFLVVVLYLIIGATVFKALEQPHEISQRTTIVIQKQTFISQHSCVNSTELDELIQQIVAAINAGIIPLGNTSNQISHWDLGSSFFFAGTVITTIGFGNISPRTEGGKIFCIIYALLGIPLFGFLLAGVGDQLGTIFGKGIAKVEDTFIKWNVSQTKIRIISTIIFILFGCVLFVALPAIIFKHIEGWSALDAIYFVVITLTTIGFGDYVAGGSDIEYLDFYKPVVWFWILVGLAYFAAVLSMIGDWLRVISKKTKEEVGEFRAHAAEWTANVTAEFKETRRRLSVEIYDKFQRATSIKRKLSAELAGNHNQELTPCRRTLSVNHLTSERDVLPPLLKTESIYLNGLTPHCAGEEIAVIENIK

[2] = tested on: rodents; set-up: method as in PMID 32851651; settings: cited from earlier work
[3] = target: T1, TREK-1; test: TREK-1 activation, BL-1249 series (assay not given); assay type: cell-based; settings: assay format not stated
[4] = target: T2, TREK-2 (Homo sapiens, UniProt P57789); test: TREK-2 activation, BL-1249 series (assay not given); assay type: cell-based; settings: assay format not stated
T2 sequence (P57789 1-538): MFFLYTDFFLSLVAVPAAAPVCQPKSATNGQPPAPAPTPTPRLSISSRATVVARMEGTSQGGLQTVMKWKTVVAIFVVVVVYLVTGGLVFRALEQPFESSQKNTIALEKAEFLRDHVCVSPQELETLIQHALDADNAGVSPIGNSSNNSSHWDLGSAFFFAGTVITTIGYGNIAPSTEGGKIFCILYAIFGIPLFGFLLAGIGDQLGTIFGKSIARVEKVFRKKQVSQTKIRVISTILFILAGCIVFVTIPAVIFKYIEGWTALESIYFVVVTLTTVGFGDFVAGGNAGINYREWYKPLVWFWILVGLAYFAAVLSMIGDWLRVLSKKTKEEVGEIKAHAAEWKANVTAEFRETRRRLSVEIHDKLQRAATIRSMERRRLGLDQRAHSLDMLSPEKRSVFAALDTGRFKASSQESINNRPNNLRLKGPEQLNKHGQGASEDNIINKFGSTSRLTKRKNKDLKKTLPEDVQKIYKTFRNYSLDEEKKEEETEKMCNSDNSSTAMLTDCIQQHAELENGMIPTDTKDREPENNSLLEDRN

[5] = rat predicted hepatic clearance (hepatic microsomes); assay type: in vitro ADME
Procedure: Intrinsic clearance: Human or rat hepatic microsomes (0.5 mg/mL) and 1 µM test compound were incubated in 100 mM potassium phosphate pH 7.4 buffer with 3 mM MgCl2 at 37 °C with constant shaking. After a 5 min preincubation, the reaction was initiated by the addition of NADPH (1 mM). At selected time intervals (0, 3, 7, 15, 25, and 45 min), aliquots were taken and subsequently placed into a 96-well plate containing cold acetonitrile with internal standard (50 ng/mL carbamazepine). Plates were then centrifuged at 3000 rcf (4 °C) for 10 min, and the supernatant was transferred to a separate 96-well plate and diluted 1:1 with water for LC/MS/MS analysis. The in vitro half-life ( 1/2, min, Eq. 1), intrinsic clearance (CLint, mL/min/kg, Eq. 2), and subsequent predicted hepatic clearance (CLhep, mL/min/kg, Eq. 3) was determined employing the […]
where k represents the slope from linear regression analysis of the natural log percent remaining of a test compound as a function of incubation time […]
(2) CLint = in vitroT1/2 x mg microsomes x gram liver x kg body wt ascale-up factors: of 20 (human) or 45 (rat) […]
where Qh (hepatic blood flow, mL/min/kg) is 21 (human) or 70 (rat).
LC/MS/MS Bioanalysis of Samples from Plasma Protein Binding and Intrinsic Clearance […]
Samples were analyzed on a Thermo Electron TSQ Quantum Ultra triple quad mass spectrometer (San Jose, CA) via electrospray ionization (ESI) with two Themo Electron Accella pumps (San Jose, CA), and a Leap Technologies CTC PAL autosampler (Carrboro, NC). Analytes were separated by gradient elution on a dual column system with two Thermo Hypersil Gold (2.1 x 30 mm, 1.9 µm) columns (San Jose, CA) thermostated at 40 °C. HPLC mobile phase A was 0.1% formic acid in water and mobile phase B was 0.1% formic acid in acetonitrile. The gradient started […]
for 0.2 min; returned to 10% B in 0.1 min. The total run time was 1.3 min and the HPLC flow rate was 0.8 mL/min. While pump 1 ran the gradient method, pump 2 equilibrated the alternate column isocratically at 10% B. Compound optimization, data collection, and processing was performed using Thermo Electron's QuickQuan software (v2.3) and Xcalibur (v2.0.7 SP1).

[6] = rat plasma protein binding (equilibrium dialysis); assay type: in vitro ADME; settings: pH 7.4, read-out: rat plasma fu
Procedure: In vitro Plasma protein binding and Brain homogenate binding: Determination of fraction unbound (f u) in plasma was conducted in vitro via equilibrium dialysis using HTDialysis (HTD) membrane plates. The top half of the plate was filled with 100 uL of Dubelco’s Phosphate Buffered Saline, pH 7.4 (DPBS). Compounds were diluted into plasma from each species (5 µM final concentration), which was aliquoted in triplicate to the ‘bottom half’ of the prepared HTD plate wells. The HTD plate was sealed and incubated for 6 hours at 37 °C. Following incubation, each well (both top and bottom halves) were transferred (20 µL) to the corresponding wells of a 96-shallow-well (V-bottom) plate. The daughter plates were then matrix-matched (DPBS side wells received equal volume of plasma, and plasma side wells received equal volume of DPBS), and extraction solution (120 µL; acetonitrile containing 50 nM carbamazepine as IS) was added to all wells of both daughter plates to precipitate protein and extract test article. The plates were then sealed and centrifuged (3500 rcf) for 10 minutes at ambient temperature. Supernatant (60 µL) from each well of the daughter plates was then transferred to the corresponding wells of new daughter plates (96-shallow-well, V bottom) containing water (Milli-Q, 60 µL/well), and the plates were sealed in preparation for LC-MS/MS analysis (see LC-MS/MS analysis method below).
The unbound fraction (f u) was calculated following the equation below, and mean values for each species were calculated from 3 replicates. […]
Fraction unbound for both plasma and brain samples was determined using Equation 4.
Equation 4 Determination of fraction unbound in plasma. […]

SMILES	pEC50 [1]	morphine-like adverse events at efficacious doses [2]	antinociceptive activity ([2]; naïve rodents and models of neuropathic and inflammatory pain)	pEC50 [3]	Emax [3] [%]	pEC50 [4]	Emax [4] [%]	rat CLhep (predicted hepatic clearance) [5] [mL/min/kg]	fraction unbound at 6 h, 5 µM [6]
N#C/C(=C\c1ccoc1)C(=O)O [Compound 3]	4.43	did not induce respiratory depression, rewarding effects, depression, constipation or other morphine-inducing adverse events	antinociceptive activity	–	–	–	–	–	–
O=c1[nH]c(-c2ccc(F)cc2Nc2cccc(C(F)(F)F)c2)no1 [Compound 11]	–	–	–	5.44	67	4.89	129	26.8	0.042
